# Reference: patent US8357634B2, “N-alkoxycarboxamides and their use as microbiocides” (Syngenta Crop Protection LLC, priority 2009, dated 2013)
# Tests used:
# [1] = system: Erysiphe graminis f. sp. tritici; test: Example B-5: Action against Erysiphe graminis f. sp. tritici (wheat powdery mildew), wheat leaf segments; assay type: in vivo; settings: Blumeria graminis, foliar, 168 h, 0.02% active ingredient, 7 days after inoculation, read-out: preventive fungicidal activity (inhibition)
# Protocol: (§1) Action Against Erysiphe graminis f. sp. tritici (Wheat Powdery Mildew) Wheat leaf segments were placed on agar in multiwell plates (24-well format) and sprayed with test solutions (0.02% active ingredient). After drying, the leaf disks were inoculated with a spore suspension of the fungus. After appropriate incubation the activity of a compound was assessed 7 days after inoculation as preventive fungicidal activity.
# [2] = system: Mycosphaerella arachidis (Cercospora arachidicola); test: Example B-2: Action against Mycosphaerella arachidis, fungal growth assay; assay type: cell-based; settings: 0.002% active ingredient, PDB broth, 24° C., photometric after 6-7 days
# Protocol: (§2) Action Against Mycosphaerella arachidis (Early Leaf Spot of Groundnut; Cercospora arachidicola [fanamorph])—Fungal Growth Assay Conidia of the fungus from cryogenic storage were directly mixed into nutrient broth (PDB potato dextrose broth). After placing a (DMSO) solution of the test compounds (0.002% active ingredient) into a microtiter plate (96-well format) the nutrient broth containing the fungal spores was added. The test plates were incubated at 24° C. and the inhibition of growth was measured photometrically after 6-7 days. The activity of a compound was expressed as fungal growth inhibition (0=no growth inhibition, ratings of 80% to 99% mean good to very good inhibition, 100%=complete inhibition).
# Pyrenophora teres [3] = test: Example B-8: Action against Pyrenophora teres (net blotch) on barley leaf segments; assay type: in vivo; settings: foliar, 96 h, 0.02% active ingredient, 4 days after inoculation, read-out: preventive fungicidal activity (inhibition)
# Protocol: as §1, with “Pyrenophora teres (Net Blotch) on Barley Barley” for “Erysiphe graminis f. sp. tritici (Wheat Powdery Mildew) Wheat”, “4” for “7”
# Puccinia recondita [4] = test: Example B-6: Protective action against Puccinia recondita (brown rust) on wheat leaf segments; assay type: in vivo; settings: foliar, 192 h, 0.02% active ingredient, 8 days after inoculation, read-out: preventive fungicidal activity (inhibition)
# Protocol: as §1, with “Protective Action” for “Action”, “Puccinia recondita (Brown Rust) on Wheat” for “Erysiphe graminis f. sp. tritici (Wheat Powdery Mildew)”, “8” for “7”
# Septoria tritici = test: Example B-3: Action against Septoria tritici, fungal growth assay; assay type: cell-based; settings: Zymoseptoria tritici; 0.002% active ingredient; PDB broth, 24° C., photometric after 72 hrs
# Protocol: as §2, with “Septoria tritici—Fungal” for “Mycosphaerella arachidis (Early Leaf Spot of Groundnut; Cercospora arachidicola [fanamorph])—Fungal”, “determined” for “measured”, “72 hrs.” for “6-7 days.”
# Botrvtis cinerea = test: Example B-1: Action against Botrytis cinerea, fungal growth assay; assay type: cell-based; settings: 0.002% active ingredient, PDB broth, 24° C., photometric after 3-4 days
# Protocol: as §2, with “Action against Botrvtis cinerea—fungal growth assay” for “Action Against Mycosphaerella arachidis (Early Leaf Spot of Groundnut; Cercospora arachidicola [fanamorph])—Fungal Growth Assay”, “storage was” for “storage were”, “after 3-4” for “after 6-7”
# [5] = system: Monopraphella nivalis (Microdochium nivale); test: Example B-18: Monographella nivalis (Microdochium nivale) / liquid culture (comparative); assay type: cell-based; settings: 24° C., photometric after 4-6 days, read-out: inhibition of growth
# Protocol: (§3) Monopraphella nivalis (Microdochium nivale)/Liquid Culture (Foot Rot Cereals Conidia of the fungus from cryogenic storage were directly mixed into nutrient broth (PDB potato dextrose broth). After placing a (DMSO) solution of the test compounds into a microtiter plate (96-well format) the nutrient broth containing the fungal spores was added. The test plates were incubated at 24° C. and the inhibition of growth is measured photometrically after 4-6 days.
# Pyrenophora teres [6] = test: Example B-12: Pyrenophora teres / barley / leaf disc preventive (comparative); assay type: in vivo; settings: 4 dpi
# Protocol: (§4) Pyrenophora teres/Barley/Leaf Disc Preventive (Net Blotch) Barley leaf segments were placed on agar in a multiwell plate (24-well format) and sprayed with test solutions. After drying, the leaf disks were inoculated with a spore suspension of the fungus. After appropriate incubation the activity of a compound was assessed 4 dpi (days after inoculation) as preventive fungicidal activity.
# Alternaria solani = test: Example B-13: Alternaria solani / tomato / leaf disc (comparative); assay type: in vivo; settings: 4 dpi
# Protocol: Alternaria solani/Tomato/Leaf Disc (Early Blight) Tomato leaf disks were placed on water agar in multiwell plates (24-well format) and sprayed with test solutions. After drying, the leaf disks were inoculated with a spore suspension of the fungus. After appropriate incubation the activity of a compound was assessed 4 dpi (days after inoculation) as preventive fungicidal activity.
# [7] = system: Phaeosphaeria nodorum (Septoria nodorum); test: Example B-11: Phaeosphaeria nodorum / wheat / leaf disc preventative (comparative); assay type: in vivo; settings: 4 dpi
# Protocol: as §4, with “Phaeosphaeria nodorum (Septoria nodorum)/Wheat/Leaf” for “Pyrenophora teres/Barley/Leaf”, “Preventative (Glume” for “Preventive (Net”, “Wheat” for “Barley”
# [8] = system: Botryotinia fuckeliana (Botrytis cinerea); test: Example B-14: Botryotinia fuckeliana (Botrytis cinerea) / liquid culture (comparative); assay type: cell-based; settings: 24° C., photometric after 3-4 days, read-out: inhibition of growth
# Protocol: Botryotinia fuckeliana (Botrytis cinerea)/Liquid Culture (Gray Mould) Conidia of the fungus from cryogenic storage were directly mixed into nutrient broth. After placing a (DMSO) solution of the test compounds into a microtiter plate (96-well format) the nutrient broth containing the fungal spores was added. The test plates were incubated at 24° C. and the inhibition of growth is determined photometrically after 3-4 days.
# Puccinia recondita [9] = test: Example B-10: Puccinia recondita / wheat / leaf disc preventative (comparative); assay type: in vivo; settings: 8 dpi
# Protocol: Puccinia recondita/Wheat/Leaf Disc Preventative (Brown Rust) Wheat leaf segments were placed on agar in multiwell plates (24-well format) and sprayed with test solutions. After drying, the leaf disks were inoculated with a spore suspension of the fungus. After appropriate incubation the activity of a compound was assessed 8 dpi (days after inoculation) as preventive fungicidal activity.
# [10] = system: Blumeria graminis f. sp. tritici (Erysiphe graminis f. sp. tritici); test: Example B-9: Blumeria graminis f. sp. tritici / wheat / leaf disc preventive (comparative); assay type: in vivo; settings: 4 dpi
# Protocol: as §4, with “Blumeria graminis f. sp. tritici (Erysiphe graminis f. sp. tritici)/Wheat/Leaf” for “Pyrenophora teres/Barley/Leaf”, “(Powdery mildew on wheat) Wheat” for “(Net Blotch) Barley”
# Gaeumannomyces graminis = test: Example B-17: Gaeumannomyces graminis / liquid culture (comparative); assay type: cell-based; settings: 24 C, photometric after 2-3 days, read-out: inhibition of growth
# Protocol: as §3, with “Gaeumannomyces graminis/Liquid” for “Monopraphella nivalis (Microdochium nivale)/Liquid”, “(Take-All of Cereals) Mycelial fragments” for “(Foot Rot Cereals Conidia”, “24 C” for “24° C.”, “was determined” for “is measured”, “2-3” for “4-6”
# [11] = system: Mycosphaerella praminicola (Seotoria tritici); test: Example B-16: Mycosphaerella graminicola (Septoria tritici) / liquid culture (comparative); assay type: cell-based; settings: 96 h, 24° C., photometric after 4 days, read-out: inhibition of growth
# Protocol: as §3, with “Mycosphaerella praminicola (Seotoria tritici)/Liquid” for “Monopraphella nivalis (Microdochium nivale)/Liquid”, “(Septoria Blotch)” for “(Foot Rot Cereals”, “4” for “4-6”
# [12] = system: Mycosphaerella arachidis (Cercospora arachidicola); test: Example B-15: Mycosphaerella arachidis / liquid culture (comparative); assay type: cell-based; settings: 24° C., photometric after 6-7 days, read-out: inhibition of growth
# Protocol: as §3, with “Mycosphaerella arachidis (Cercospora arachidicola)/Liquid” for “Monopraphella nivalis (Microdochium nivale)/Liquid”, “(Early Leaf Spot)” for “(Foot Rot Cereals”, “6-7” for “4-6”
structure (smiles),measurement,setting,value
"CON(C(=O)c1cn(C)nc1C(F)F)C(C)c1ccc(Oc2ccc(Cl)cc2)cc1 (stereo not shown) [Compound 1.010, 3-difluoromethyl-1-methyl-1H-pyrazole-4-carboxylic acid {1-[4-(4-chloro-phenoxy)-phenyl]-ethyl}-methoxy-amide]",inhibition at 0.02 % strength,[1],≥ 80%
same,inhibition at 0.002 % strength,[2],≥ 80%
same,inhibition at 0.02 % strength,Pyrenophora teres [3],≥ 80%
same,inhibition at 0.02 % strength,Puccinia recondita [4],≥ 80%
same,inhibition at 0.002 % strength,Septoria tritici,≥ 80%
same,inhibition at 0.002 % strength,Botrvtis cinerea,≥ 80%
"CON(C(=O)c1cn(C)nc1C(F)F)C(C)c1cccc(-c2ccc(Cl)cc2)c1 (stereo not shown) [Compound 1.019, 3-difluoromethyl-1-methyl-1H-pyrazole-4-carboxylic acid [1-(4′ chloro-biphenyl-3-yl)-ethyl]-methoxy-amide]",inhibition at 0.02 % strength,[1],≥ 80%
same,inhibition at 0.002 % strength,[2],≥ 80%
same,inhibition at 0.02 % strength,Pyrenophora teres [3],≥ 80%
same,inhibition at 0.02 % strength,Puccinia recondita [4],≥ 80%
same,inhibition at 0.002 % strength,Septoria tritici,≥ 80%
same,inhibition at 0.002 % strength,Botrvtis cinerea,≥ 80%
"CON(C(=O)c1cn(C)nc1C(F)F)C(C)c1cccc(Oc2ccc(Cl)cc2)c1 (stereo not shown) [Compound 1.021, 3-difluoromethyl-1-methyl-1H-pyrazole-4-carboxylic acid {1-[3-(4-chloro-phenoxy)-phenyl]-ethyl}-methoxy-amide]",inhibition at 0.02 % strength,[1],≥ 80%
same,inhibition at 0.002 % strength,[2],≥ 80%
same,inhibition at 0.02 % strength,Pyrenophora teres [3],≥ 80%
same,inhibition at 0.02 % strength,Puccinia recondita [4],≥ 80%
same,inhibition at 0.002 % strength,Septoria tritici,≥ 80%
same,inhibition at 0.002 % strength,Botrvtis cinerea,≥ 80%
"CON(Cc1cccc(I)c1)C(=O)c1cn(C)nc1C(F)F [Compound 1.097, 3-difluoromethyl-1,1-dimethyl-1H-pyrazole-4-carboxylic acid (3-iodo-benzyl)-methoxy-amide]",inhibition at 0.002 % strength,[2],≥ 80%
same,inhibition at 0.002 % strength,Septoria tritici,≥ 80%
same,melting point,,114 to 116 °C
same,inhibition at 0.002 % strength,Botrvtis cinerea,≥ 80%
"CON(Cc1cccc(-c2ccc(Cl)cc2)c1)C(=O)c1cn(C)nc1C(F)F [Compound 1.098, 3-difluoromethyl-1-methyl-1H-pyrazole-4-carboxylic acid (4′-chloro-biphenyl-3-ylmethyl)-methoxy-amide]",inhibition at 0.02 % strength,[1],≥ 80%
same,inhibition at 0.002 % strength,[2],≥ 80%
same,inhibition at 0.02 % strength,Pyrenophora teres [3],≥ 80%
same,inhibition at 0.02 % strength,Puccinia recondita [4],≥ 80%
same,inhibition at 0.002 % strength,Septoria tritici,≥ 80%
same,inhibition at 0.002 % strength,Botrvtis cinerea,≥ 80%
"CC(NC(=O)c1cn(C)nc1C(F)F)c1ccc(Cl)cc1Cl (stereo not shown) [No. 1.042 (prior art), reference compound]",inhibition at 6 ppm,[5]; 6 ppm,0%
same,inhibition at 20 ppm,[5]; 20 ppm,0%
same,inhibition at 60 ppm,[5]; 60 ppm,50%
same,preventive fungicidal activity,Pyrenophora teres [6]; 20 ppm,50
same,preventive fungicidal activity,Pyrenophora teres [6]; 60 ppm,90
same,preventive fungicidal activity,Pyrenophora teres [6]; 200 ppm,100
same,preventive fungicidal activity,Alternaria solani; 20 ppm,0
same,preventive fungicidal activity,Alternaria solani; 60 ppm,20
same,preventive fungicidal activity,Alternaria solani; 200 ppm,70
same,preventive fungicidal activity,[7]; 20 ppm,0
same,preventive fungicidal activity,[7]; 60 ppm,0
same,preventive fungicidal activity,[7]; 200 ppm,70
same,inhibition at 20 ppm,[8]; 20 ppm,0%
same,inhibition at 60 ppm,[8]; 60 ppm,20%
same,inhibition at 200 ppm,[8]; 200 ppm,50%
same,preventive fungicidal activity,Puccinia recondita [9]; 20 ppm,0
same,preventive fungicidal activity,Puccinia recondita [9]; 60 ppm,0
same,preventive fungicidal activity,Puccinia recondita [9]; 200 ppm,50
same,preventive fungicidal activity,[10]; 20 ppm,0
same,preventive fungicidal activity,[10]; 60 ppm,50
same,preventive fungicidal activity,[10]; 200 ppm,100
same,inhibition at 6 ppm,Gaeumannomyces graminis; 6 ppm,0%
same,inhibition at 20 ppm,Gaeumannomyces graminis; 20 ppm,0%
same,inhibition at 60 ppm,Gaeumannomyces graminis; 60 ppm,0%
same,inhibition at 6 ppm,[11]; 6 ppm,20%
same,inhibition at 20 ppm,[11]; 20 ppm,100%
same,inhibition at 60 ppm,[11]; 60 ppm,100%
same,inhibition at 6 ppm,[12]; 6 ppm,0%
same,inhibition at 20 ppm,[12]; 20 ppm,100%
same,inhibition at 60 ppm,[12]; 60 ppm,100%
